Patent US20100267561A1, “HERBICIDAL PYRIDAZINONE DERIVATIVES” (priority 2007, published 2010)

How the values were obtained:
Test in all cases: Test E pre-/postemergence plant response
Format in all cases: in vivo
[1] = system: Italian ryegrass (Lolium multiflorum); conditions: scale 0 to 100
From the text: (§1) Seeds of plant species selected from bermudagrass (Cynodon dactylon), Surinam grass (Brachiaria decumbens), large crabgrass (Digitaria sanguinalis), green foxtail (Setaria viridis), goosegrass (Eleusine indica), johnsongrass (Sorghum halepense), kochia (Kochia scoparia), pitted morningglory (Ipomoea lacunosa), purple nutsedge (Cyperus rotundus), common ragweed (Ambrosia elation), black mustard (Brassica nigra), guineagrass (Panicum maximum), dallisgrass (Paspalum dilatatum), barnyardgrass (Echinochloa crus-galli), southern (S.) sandbur (Cenchrus echinatus), common sowthistle (Sonchus oleraceous), prickly sida (Sida spinosa), Italian ryegrass (Lolium multiflorum), common purslane (Portulaca oleracea), broadleaf signalgrass (Brachiaria platyphylla), common groundsel (Senecio vulgaris), common chickweed (Stellaria media), Virginia (V.) dayflower (Commelina virginica), tropical (T.) spiderwort (Commelina benghalensis), annual bluegrass (Poa annua), naked crabgrass (Digitaria nuda), itchgrass (Rottboellia cochinchinensis), quackgrass (Elytrigia repens), Canada horseweed (Conyza canadensis), field bindweed (Convolvulus arvensis), spanishneedles (Bidens bipinnata), common mallow (Malva sylvestris) and Russian thistle (Salsola kali) were planted and treated preemergence with test chemicals formulated in a non-phytotoxic solvent mixture which included a surfactant. At the same time, plants selected from these weed species were treated with postemergence applications of some of the test chemicals formulated in the same manner. Plants ranged in height from 2 to 18 cm (1- to 4-leaf stage) for postemergence treatments.
(§2) Treated plants and controls were maintained in a greenhouse for 14 to 21 days, after which time all species were compared to controls and visually evaluated. Plant response ratings, summarized in Table E, are based on a scale of 0 to 100 where 0 is no effect and 100 is complete control. A dash (-) response means no test result.

[2] = system: barnyardgrass (Echinochloa crus-galli)
From the text: as §1, §2

[3] = system: black mustard (Brassica nigra); conditions: scale 0 to 100
From the text: as §1, §2

[4] = system: broadleaf signalgrass (Brachiaria platyphylla); conditions: scale 0 to 100
From the text: as §1, §2

[5] = system: common chickweed (Stellaria media); conditions: Postemergence, scale 0 to 100
From the text: as §1, §2

[6] = system: common groundsel (Senecio vulgaris); conditions: scale 0 to 100
From the text: as §1, §2

[7] = system: goosegrass (Eleusine indica); conditions: scale 0 to 100
From the text: as §1, §2

[8] = system: green foxtail (Setaria viridis); conditions: scale 0 to 100
From the text: as §1, §2

[9] = system: itchgrass (Rottboellia cochinchinensis); conditions: scale 0 to 100
From the text: as §1, §2

[10] = system: johnsongrass (Sorghum halepense); conditions: scale 0 to 100
From the text: as §1, §2

[11] = system: naked crabgrass (Digitaria nuda); conditions: scale 0 to 100
From the text: as §1, §2

[12] = system: pitted morningglory (Ipomoea lacunosa); conditions: scale 0 to 100
From the text: as §1, §2

[13] = system: quackgrass (Elytrigia repens); conditions: scale 0 to 100
From the text: as §1, §2

[14] = system: southern (S.) sandbur (Cenchrus echinatus); conditions: scale 0 to 100
From the text: as §1, §2

[15] = system: surinam grass (Brachiaria decumbens); conditions: scale 0 to 100
From the text: as §1, §2

In the case of CCc1cc(-c2ccc(C(F)(F)F)cc2)nn1-c1c(O)cnn(C)c1=O [Compound 11, 4-[5-ethyl-3-[4-(trifluoromethyl)phenyl]-1H-pyrazol-1-yl]-5-hydroxy-2-methyl-3(2H)-pyridazinone], the “Plant response rating, Ryegrass, Italian” value ([1]; 4 g ai/ha, Postemergence) is reported as 75, the “Plant response rating, Ryegrass, Italian” value ([1]; 16 g ai/ha, Preemergence) is reported as 80 and the “Plant response rating, Ryegrass, Italian” value ([1]; 31 g ai/ha, Preemergence) is reported as 100. For the same molecule, the “Plant response rating, Ryegrass, Italian” value ([1]; Postemergence, 8 g ai/ha) was 90, the “Plant response rating, Ryegrass, Italian” value ([1]; Postemergence, 16 g ai/ha) was 95 and the “Plant response rating, Ryegrass, Italian” value ([1]; Postemergence, 31 g ai/ha) was 95. For the same molecule, the “Plant response rating, Ryegrass, Italian” value ([1]; Preemergence, 4 g ai/ha) was 20, the “Plant response rating, Barnyardgrass” value ([2]; 4 g ai/ha, Postemergence, scale 0 to 100) was 90 and the “Plant response rating, Barnyardgrass” value ([2]; 8 g ai/ha, Preemergence, scale 0 to 100) was 75. The “Plant response rating, Barnyardgrass” value ([2]; 16 g ai/ha, Preemergence, scale 0 to 100) was 90, the “Plant response rating, Barnyardgrass” value ([2]; 31 g ai/ha, Preemergence, scale 0 to 100) was 98 and the “Plant response rating, Barnyardgrass” value ([2]; Postemergence, 8 g ai/ha, scale 0 to 100) was 100. For the same molecule, the “Plant response rating, Barnyardgrass” value ([2]; Postemergence, 16 g ai/ha, scale 0 to 100) was 100, the “Plant response rating, Barnyardgrass” value ([2]; Postemergence, 31 g ai/ha, scale 0 to 100) was 100 and the “Plant response rating, Barnyardgrass” value ([2]; Preemergence, 4 g ai/ha, scale 0 to 100, 0 no effect, 100 complete control) was 0. For the same molecule, the “Plant response rating, Mustard, Black” value ([3]; 4 g ai/ha, Postemergence) was 0, the “Plant response rating, Mustard, Black” value ([3]; 8 g ai/ha, Preemergence) was 0 and the “Plant response rating, Mustard, Black” value ([3]; 16 g ai/ha, Preemergence) was 0. The “Plant response rating, Mustard, Black” value ([3]; 31 g ai/ha, Preemergence) was 0, the “Plant response rating, Mustard, Black” value ([3]; Postemergence, 8 g ai/ha) was 0 and the “Plant response rating, Mustard, Black” value ([3]; Postemergence, 16 g ai/ha) was 0. For the same molecule, the “Plant response rating, Mustard, Black” value ([3]; Postemergence, 31 g ai/ha) was 0, the “Plant response rating, Mustard, Black” value ([3]; Preemergence, 4 g ai/ha) was 0 and the “Plant response rating, Signalgrass” value ([4]; 4 g ai/ha, Postemergence) was 90. The “Plant response rating, Signalgrass” value ([4]; 16 g ai/ha, Preemergence) was 90, the “Plant response rating, Signalgrass” value ([4]; 31 g ai/ha, Preemergence) was 100 and the “Plant response rating, Signalgrass” value ([4]; Postemergence, 8 g ai/ha) was 90. For the same molecule, the “Plant response rating, Signalgrass” value ([4]; Postemergence, 16 g ai/ha) was 90, the “Plant response rating, Signalgrass” value ([4]; Postemergence, 31 g ai/ha) was 100 and the “Plant response rating, Signalgrass” value ([4]; Preemergence, 4 g ai/ha) was 0. The “Plant response rating, Chickweed” value ([5]; 4 g ai/ha) was 0, the “Plant response rating, Chickweed” value ([5]; 8 g ai/ha) was 0 and the “Plant response rating, Chickweed” value ([5]; 16 g ai/ha) was 0. For the same molecule, the “Plant response rating, Chickweed” value ([5]; 31 g ai/ha) was 0, the “Plant response rating, Groundsel” value ([6]; 4 g ai/ha, Postemergence) was 0 and the “Plant response rating, Groundsel” value ([6]; 16 g ai/ha, Preemergence) was 0. The “Plant response rating, Groundsel” value ([6]; 31 g ai/ha, Preemergence) was 0, the “Plant response rating, Groundsel” value ([6]; Postemergence, 8 g ai/ha) was 0 and the “Plant response rating, Groundsel” value ([6]; Postemergence, 16 g ai/ha) was 0. The “Plant response rating, Groundsel” value ([6]; Postemergence, 31 g ai/ha) was 0, the “Plant response rating, Groundsel” value ([6]; Preemergence, 4 g ai/ha) was 0 and the “Plant response rating, Goosegrass” value ([7]; 4 g ai/ha, Postemergence) was 10. For the same molecule, the “Plant response rating, Goosegrass” value ([7]; 8 g ai/ha, Preemergence) was 25, the “Plant response rating, Goosegrass” value ([7]; 16 g ai/ha, Preemergence) was 50 and the “Plant response rating, Goosegrass” value ([7]; 31 g ai/ha, Preemergence) was 90. The “Plant response rating, Goosegrass” value ([7]; Postemergence, 8 g ai/ha) was 35, the “Plant response rating, Goosegrass” value ([7]; Postemergence, 16 g ai/ha) was 80 and the “Plant response rating, Goosegrass” value ([7]; Postemergence, 31 g ai/ha) was 85. For the same molecule, the “Plant response rating, Goosegrass” value ([7]; Preemergence, 4 g ai/ha) was 25, the “Plant response rating, Foxtail, Green” value ([8]; 4 g ai/ha, Postemergence) was 60 and the “Plant response rating, Foxtail, Green” value ([8]; 8 g ai/ha, Preemergence) was 50. The “Plant response rating, Foxtail, Green” value ([8]; 16 g ai/ha, Preemergence) was 98, the “Plant response rating, Foxtail, Green” value ([8]; 31 g ai/ha, Preemergence) was 98 and the “Plant response rating, Foxtail, Green” value ([8]; Postemergence, 8 g ai/ha) was 90. For the same molecule, the “Plant response rating, Foxtail, Green” value ([8]; Postemergence, 16 g ai/ha) was 98, the “Plant response rating, Foxtail, Green” value ([8]; Postemergence, 31 g ai/ha) was 100 and the “Plant response rating, Foxtail, Green” value ([8]; Preemergence, 4 g ai/ha) was 0. For the same molecule, the “Plant response rating, Itchgrass” value ([9]; 4 g ai/ha, Postemergence) was 0, the “Plant response rating, Itchgrass” value ([9]; 16 g ai/ha, Preemergence) was 65 and the “Plant response rating, Itchgrass” value ([9]; 31 g ai/ha, Preemergence) was 80. For the same molecule, the “Plant response rating, Itchgrass” value ([9]; Postemergence, 8 g ai/ha) was 75, the “Plant response rating, Itchgrass” value ([9]; Postemergence, 16 g ai/ha) was 85 and the “Plant response rating, Itchgrass” value ([9]; Postemergence, 31 g ai/ha) was 98. The “Plant response rating, Itchgrass” value ([9]; Preemergence, 4 g ai/ha) was 0, the “Plant response rating, Johnsongrass” value ([10]; 4 g ai/ha, Postemergence) was 95 and the “Plant response rating, Johnsongrass” value ([10]; 16 g ai/ha, Preemergence) was 90. For the same molecule, the “Plant response rating, Johnsongrass” value ([10]; 31 g ai/ha, Preemergence) was 95, the “Plant response rating, Johnsongrass” value ([10]; Postemergence, 8 g ai/ha) was 100 and the “Plant response rating, Johnsongrass” value ([10]; Postemergence, 16 g ai/ha) was 100. The “Plant response rating, Johnsongrass” value ([10]; Postemergence, 31 g ai/ha) was 100, the “Plant response rating, Johnsongrass” value ([10]; Preemergence, 4 g ai/ha) was 75 and the “Plant response rating, Crabgrass, Naked” value ([11]; 4 g ai/ha, Postemergence) was 25. The “Plant response rating, Crabgrass, Naked” value ([11]; 8 g ai/ha, Preemergence) was 40, the “Plant response rating, Crabgrass, Naked” value ([11]; 16 g ai/ha, Preemergence) was 95 and the “Plant response rating, Crabgrass, Naked” value ([11]; 31 g ai/ha, Preemergence) was 100. The “Plant response rating, Crabgrass, Naked” value ([11]; Postemergence, 8 g ai/ha) was 90, the “Plant response rating, Crabgrass, Naked” value ([11]; Postemergence, 16 g ai/ha) was 95 and the “Plant response rating, Crabgrass, Naked” value ([11]; Postemergence, 31 g ai/ha) was 98. For the same molecule, the “Plant response rating, Morningglory” value ([12]; 4 g ai/ha, Postemergence) was 0, the “Plant response rating, Morningglory” value ([12]; 16 g ai/ha, Preemergence) was 0 and the “Plant response rating, Morningglory” value ([12]; 31 g ai/ha, Preemergence) was 0. The “Plant response rating, Morningglory” value ([12]; Postemergence, 8 g ai/ha) was 0, the “Plant response rating, Morningglory” value ([12]; Postemergence, 16 g ai/ha) was 0 and the “Plant response rating, Morningglory” value ([12]; Postemergence, 31 g ai/ha) was 0. The “Plant response rating, Morningglory” value ([12]; Preemergence, 4 g ai/ha) was 0, the “Plant response rating, Quackgrass” value ([13]; 4 g ai/ha, Postemergence) was 40 and the “Plant response rating, Quackgrass” value ([13]; 16 g ai/ha, Preemergence) was 60. The “Plant response rating, Quackgrass” value ([13]; 31 g ai/ha, Preemergence) was 75, the “Plant response rating, Quackgrass” value ([13]; Postemergence, 8 g ai/ha) was 65 and the “Plant response rating, Quackgrass” value ([13]; Postemergence, 16 g ai/ha) was 90. For the same molecule, the “Plant response rating, Quackgrass” value ([13]; Postemergence, 31 g ai/ha) was 95, the “Plant response rating, Quackgrass” value ([13]; Preemergence, 4 g ai/ha) was 0 and the “Plant response rating, Sandbur, S.” value ([14]; 4 g ai/ha, Postemergence) was 90. The “Plant response rating, Sandbur, S.” value ([14]; 16 g ai/ha, Preemergence) was 90, the “Plant response rating, Sandbur, S.” value ([14]; 31 g ai/ha, Preemergence) was 95 and the “Plant response rating, Sandbur, S.” value ([14]; Postemergence, 8 g ai/ha) was 95. The “Plant response rating, Sandbur, S.” value ([14]; Postemergence, 16 g ai/ha) was 100, the “Plant response rating, Sandbur, S.” value ([14]; Postemergence, 31 g ai/ha) was 100 and the “Plant response rating, Sandbur, S.” value ([14]; Preemergence, 4 g ai/ha) was 0. The “Plant response rating, Surinam Grass” value ([15]; 4 g ai/ha, Postemergence) was 25, the “Plant response rating, Surinam Grass” value ([15]; 16 g ai/ha, Preemergence) was 95 and the “Plant response rating, Surinam Grass” value ([15]; 31 g ai/ha, Preemergence) was 95. The “Plant response rating, Surinam Grass” value ([15]; Postemergence, 8 g ai/ha) was 80, the “Plant response rating, Surinam Grass” value ([15]; Postemergence, 16 g ai/ha) was 100 and the “Plant response rating, Surinam Grass” value ([15]; Postemergence, 31 g ai/ha) was 100. For the same molecule, the “Plant response rating, Surinam Grass” value ([15]; Preemergence, 4 g ai/ha) was 0.
